US9708318B2, “Bicyclic heterocycles as FGFR4 inhibitors” (Incyte Corporation, priority 2015, dated 2017)
Where two headings read alike, the source gives them in different places.

What was measured:
[1] = molecular target: FGFR1 (Homo sapiens (Human), UniProt P11362); assay: FGFR Enzymatic Assay (FRET peptide phosphorylation), FGFR1; settings: pre-incubated for 4 hours
[2] = molecular target: FGFR4 (Homo sapiens (Human), UniProt P22455); assay: FGFR Enzymatic Assay (FRET peptide phosphorylation), FGFR4; type: biochemical; settings: pre-incubated for 4 hours
Description: (§1) The inhibitor potency of the exemplified compounds was measured in an enzyme assay that measures peptide phosphorylation using FRET measurements to detect product formation. Inhibitors were serially diluted in DMSO and a volume of 0.5 μL was transferred to the wells of a 384-well plate.
(§2) The enzymes were purchased from Millipore or Invitrogen.
(§3) GraphPad prism3 was used to analyze the data.

[3] = molecular target: FGFR3 enzyme (Homo sapiens (Human), UniProt P22607); assay: FGFR Enzymatic Assay (FRET peptide phosphorylation), FGFR3; type: biochemical; settings: for FGFR1/FGFR3 IC50 ratio / FGFR4/FGFR3 IC50 ratio: FGFR3 selectivity
Description: as §1, §3

[4] = molecular target: FGFR2 (Homo sapiens (Human), UniProt P21802); assay: FGFR Enzymatic Assay (FRET peptide phosphorylation), FGFR2; type: biochemical; settings: pre-incubated for 4 hours
Description: as §1, §2, §3

[5] = pre-incubated for 4 hours, read-out: FGFR3 IC50

FGFR3 enzyme, sequence (P22607 23-806): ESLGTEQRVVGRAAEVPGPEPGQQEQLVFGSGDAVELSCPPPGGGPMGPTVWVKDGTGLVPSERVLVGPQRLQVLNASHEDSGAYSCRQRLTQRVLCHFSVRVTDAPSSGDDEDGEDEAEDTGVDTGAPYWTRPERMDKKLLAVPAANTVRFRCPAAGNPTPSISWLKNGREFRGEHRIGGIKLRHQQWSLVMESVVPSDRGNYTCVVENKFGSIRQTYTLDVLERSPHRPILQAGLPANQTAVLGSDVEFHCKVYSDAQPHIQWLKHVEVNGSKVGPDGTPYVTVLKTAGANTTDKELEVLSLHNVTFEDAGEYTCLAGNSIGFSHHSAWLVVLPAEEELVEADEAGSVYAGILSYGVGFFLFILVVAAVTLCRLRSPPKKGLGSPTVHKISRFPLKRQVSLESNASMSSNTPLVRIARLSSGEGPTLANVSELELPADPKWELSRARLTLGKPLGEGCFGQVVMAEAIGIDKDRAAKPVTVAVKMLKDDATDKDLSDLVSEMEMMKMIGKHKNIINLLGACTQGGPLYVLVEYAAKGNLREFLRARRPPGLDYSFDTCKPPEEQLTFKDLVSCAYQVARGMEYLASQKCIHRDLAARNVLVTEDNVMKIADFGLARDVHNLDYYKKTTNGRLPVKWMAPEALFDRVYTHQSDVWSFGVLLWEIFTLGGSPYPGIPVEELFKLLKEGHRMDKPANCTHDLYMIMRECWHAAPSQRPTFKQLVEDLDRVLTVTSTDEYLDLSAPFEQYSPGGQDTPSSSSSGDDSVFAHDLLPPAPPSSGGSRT
FGFR4, sequence (P22455 22-802): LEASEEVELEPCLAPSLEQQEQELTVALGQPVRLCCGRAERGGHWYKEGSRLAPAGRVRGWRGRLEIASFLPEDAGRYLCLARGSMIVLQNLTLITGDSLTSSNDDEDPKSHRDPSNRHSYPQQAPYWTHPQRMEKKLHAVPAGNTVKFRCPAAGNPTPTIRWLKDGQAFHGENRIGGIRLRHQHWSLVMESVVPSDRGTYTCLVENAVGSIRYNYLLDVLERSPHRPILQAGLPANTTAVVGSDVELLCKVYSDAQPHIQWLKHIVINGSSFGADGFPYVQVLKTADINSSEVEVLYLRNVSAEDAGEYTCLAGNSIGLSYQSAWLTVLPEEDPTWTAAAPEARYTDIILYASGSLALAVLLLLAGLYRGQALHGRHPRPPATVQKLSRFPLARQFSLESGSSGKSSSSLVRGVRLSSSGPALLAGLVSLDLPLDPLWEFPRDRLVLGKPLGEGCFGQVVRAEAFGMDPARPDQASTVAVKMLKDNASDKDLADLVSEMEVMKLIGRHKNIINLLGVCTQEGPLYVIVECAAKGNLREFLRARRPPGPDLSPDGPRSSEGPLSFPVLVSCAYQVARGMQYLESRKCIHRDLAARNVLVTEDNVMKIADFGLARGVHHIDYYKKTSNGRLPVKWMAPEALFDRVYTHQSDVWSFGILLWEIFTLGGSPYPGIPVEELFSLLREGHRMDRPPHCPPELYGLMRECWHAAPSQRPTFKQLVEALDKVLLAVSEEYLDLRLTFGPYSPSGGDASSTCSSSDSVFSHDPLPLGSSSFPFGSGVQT
FGFR1, sequence (P11362 22-822): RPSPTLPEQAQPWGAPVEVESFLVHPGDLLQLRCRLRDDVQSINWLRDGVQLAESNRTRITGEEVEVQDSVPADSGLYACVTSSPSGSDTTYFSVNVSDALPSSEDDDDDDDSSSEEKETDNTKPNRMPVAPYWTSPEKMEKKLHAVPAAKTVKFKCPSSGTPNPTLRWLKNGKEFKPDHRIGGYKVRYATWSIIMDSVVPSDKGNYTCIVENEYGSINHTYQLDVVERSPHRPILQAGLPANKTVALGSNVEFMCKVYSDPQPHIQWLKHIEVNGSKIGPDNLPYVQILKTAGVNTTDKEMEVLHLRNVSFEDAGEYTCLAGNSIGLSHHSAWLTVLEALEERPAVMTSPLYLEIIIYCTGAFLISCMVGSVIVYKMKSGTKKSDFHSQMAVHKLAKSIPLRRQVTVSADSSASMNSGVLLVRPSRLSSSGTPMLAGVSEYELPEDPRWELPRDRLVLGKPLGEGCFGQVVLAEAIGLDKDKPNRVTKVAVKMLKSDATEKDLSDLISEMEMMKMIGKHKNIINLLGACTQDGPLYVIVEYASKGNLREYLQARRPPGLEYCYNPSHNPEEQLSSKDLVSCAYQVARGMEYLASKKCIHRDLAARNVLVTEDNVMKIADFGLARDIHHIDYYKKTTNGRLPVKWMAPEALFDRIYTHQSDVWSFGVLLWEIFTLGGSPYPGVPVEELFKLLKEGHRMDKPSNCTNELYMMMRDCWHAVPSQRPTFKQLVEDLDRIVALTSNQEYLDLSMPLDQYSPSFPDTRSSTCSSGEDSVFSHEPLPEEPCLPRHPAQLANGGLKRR
FGFR2, sequence (P21802 22-821): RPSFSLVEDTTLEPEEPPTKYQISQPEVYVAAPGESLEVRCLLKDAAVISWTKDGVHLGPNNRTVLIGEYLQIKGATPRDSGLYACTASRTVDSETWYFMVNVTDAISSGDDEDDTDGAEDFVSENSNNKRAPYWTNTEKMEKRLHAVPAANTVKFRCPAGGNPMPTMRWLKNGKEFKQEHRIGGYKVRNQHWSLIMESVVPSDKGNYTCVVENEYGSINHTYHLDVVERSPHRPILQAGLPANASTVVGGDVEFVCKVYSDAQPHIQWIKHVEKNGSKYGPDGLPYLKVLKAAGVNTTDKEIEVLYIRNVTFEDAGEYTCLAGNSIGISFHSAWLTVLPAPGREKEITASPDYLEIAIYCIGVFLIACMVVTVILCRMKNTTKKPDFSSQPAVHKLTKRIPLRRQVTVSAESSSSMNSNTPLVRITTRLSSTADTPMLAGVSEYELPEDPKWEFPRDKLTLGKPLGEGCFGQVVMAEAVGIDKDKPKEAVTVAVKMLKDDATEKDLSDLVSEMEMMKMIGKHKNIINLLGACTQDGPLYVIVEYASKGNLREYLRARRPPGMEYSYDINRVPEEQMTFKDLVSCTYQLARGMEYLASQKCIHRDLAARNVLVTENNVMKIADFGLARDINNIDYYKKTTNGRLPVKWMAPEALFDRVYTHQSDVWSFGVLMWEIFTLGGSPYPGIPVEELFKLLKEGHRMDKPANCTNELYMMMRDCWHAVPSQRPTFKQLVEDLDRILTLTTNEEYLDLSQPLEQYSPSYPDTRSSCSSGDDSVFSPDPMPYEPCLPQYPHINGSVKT

Row | Structure (SMILES) | IC50 ([1]; FGFR1 IC50 (nM)) | IC50 [2] | FGFR1/FGFR3 IC50 ratio ([3]; pre-incubated for 4 hours) | IC50 [3, 5] | IC50 [4] | FGFR4/FGFR3 IC50 ratio ([3]; pre-incubated for 4 hours) | IC50 ([1]; read-out: FGFR1 IC50) | IC50 [3]
1 | CCN1C(=O)N(c2c(F)c(OC)cc(OC)c2F)Cc2cnc(-c3cccnc3)cc21 [Example 23, 3-(2,6-difluoro-3,5-dimethoxyphenyl)-1-ethyl-7-(pyridin-3-yl)-3,4-dihydropyrido[4,3-d]pyrimidin-2(1H)-one] | 30 to 200 nM | < 10 nM | >5 | < 10 nM | < 10 nM | – | – | –
2 | CCN1C(=O)N(c2c(F)c(OC)cc(OC)c2F)Cc2cnc(-c3ccc(CN4CC[C@H](C#N)C4)cc3)cc21 [Example 25, (S)-1-(4-(3-(2,6-difluoro-3,5-dimethoxyphenyl)-1-ethyl-2-oxo-1,2,3,4-tetrahydropyrido[4,3-d]pyrimidin-7-yl)benzyl)pyrrolidine-3-carbonitrile] | 10 to 30 nM | 10 to 30 nM | >5 | < 10 nM | < 10 nM | >5 | – | –
3 | CCN1C(=O)N(c2c(F)c(OC)cc(OC)c2F)Cc2cnc(-c3ccc(C(C)(C)C#N)nc3)cc21 [Example 26, 2-(5-(3-(2,6-difluoro-3,5-dimethoxyphenyl)-1-ethyl-2-oxo-1,2,3,4-tetrahydropyrido[4,3-d]pyrimidin-7-yl)pyridin-2-yl)-2-methylpropanenitrile] | 10 to 30 nM | 10 to 30 nM | >5 | < 10 nM | < 10 nM | >5 | – | –
4 | CCN1C(=O)N(c2cc(OC)cc(C(=O)NC)c2F)Cc2cnc(-c3ccc(C4(C#N)CCC4)nc3)cc21 [Example 28, 3-(7-(6-(1-cyanocyclobutyl)pyridin-3-yl)-1-ethyl-2-oxo-1,2-dihydropyrido[4,3-d]pyrimidin-3(4H)-yl)-2-fluoro-5-methoxy-N-methylbenzamide] | – | > 200 nM | – | 30 to 200 nM | 30 to 200 nM | – | > 200 nM | –
5 | COc1cc(OC)c(F)c(N2Cc3cnc(-c4cn(C)nc4C)cc3N(CC3CC3)C2=O)c1F [Example 29, 1-(cyclopropylmethyl)-3-(2,6-difluoro-3,5-dimethoxyphenyl)-7-(1,3-dimethyl-1H-pyrazol-4-yl)-3,4-dihydropyrido[4,3-d]pyrimidin-2(1H)-one] | 10 to 30 nM | 10 to 30 nM | >1 | < 10 nM | < 10 nM | >5 | – | –
6 | COc1cc(OC)c(F)c(N2Cc3cnc(-c4cn(C)nc4C)cc3N(C3CCCC3)C2=O)c1F [Example 32, 1-cyclopentyl-3-(2,6-difluoro-3,5-dimethoxyphenyl)-7-(1,3-dimethyl-1H-pyrazol-4-yl)-3,4-dihydropyrido[4,3-d]pyrimidin-2(1H)-one] | 10 to 30 nM | 10 to 30 nM | >1 | < 10 nM | < 10 nM | >5 | – | –
7 | COc1cc(OC)c(F)c(N2Cc3cnc(-c4cn(C)nc4C)cc3N(C3CCOC3)C2=O)c1F (stereo not drawn) [Example 33, 3-(2,6-difluoro-3,5-dimethoxyphenyl)-7-(1,3-dimethyl-1H-pyrazol-4-yl)-1-(tetrahydrofuran-3-yl)-3,4-dihydropyrido[4,3-d]pyrimidin-2(1H)-one] | 30 to 200 nM | 30 to 200 nM | >5 | < 10 nM | < 10 nM | >5 | – | –
8 | COc1cc(OC)c(F)c(N2Cc3cnc(-c4cn(C)nc4C)cc3N(Cc3ccc(F)cc3)C2=O)c1F [Example 34, 3-(2,6-difluoro-3,5-dimethoxyphenyl)-7-(1,3-dimethyl-1H-pyrazol-4-yl)-1-(4-fluorobenzyl)-3,4-dihydropyrido[4,3-d]pyrimidin-2(1H)-one] | 30 to 200 nM | 30 to 200 nM | >5 | < 10 nM | 10 to 30 nM | >10 | – | –
9 | COc1cc(OC)c(F)c(N2Cc3cnc(-c4cn(C)nc4C)cc3N(Cc3ccc4c(c3)OCCO4)C2=O)c1F [Example 38, 3-(2,6-difluoro-3,5-dimethoxyphenyl)-1-((2,3-dihydrobenzo[b][1,4]dioxin-6-yl)methyl)-7-(1,3-dimethyl-1H-pyrazol-4-yl)-3,4-dihydropyrido[4,3-d]pyrimidin-2(1H)-one] | 30 to 200 nM | 30 to 200 nM | >5 | < 10 nM | 10 to 30 nM | >5 | – | –
10 | CCn1cc(CN2C(=O)N(c3c(F)c(OC)cc(OC)c3F)Cc3cnc(-c4cn(C)nc4C)cc32)cn1 [Example 39, 3-(2,6-difluoro-3,5-dimethoxyphenyl)-7-(1,3-dimethyl-1H-pyrazol-4-yl)-1-((1-ethyl-1H-pyrazol-4-yl)methyl)-3,4-dihydropyrido[4,3-d]pyrimidin-2(1H)-one] | 10 to 30 nM | < 10 nM | >10 | < 10 nM | < 10 nM | >10 | – | –
11 | COc1cc(OC)c(F)c(N2Cc3cnc(-c4cn(C)nc4C)cc3N(c3ccc(F)cc3)C2=O)c1F [Example 40, 3-(2,6-difluoro-3,5-dimethoxyphenyl)-7-(1,3-dimethyl-1H-pyrazol-4-yl)-1-(4-fluorophenyl)-3,4-dihydropyrido[4,3-d]pyrimidin-2(1H)-one] | 30 to 200 nM | 30 to 200 nM | >10 | < 10 nM | < 10 nM | >10 | – | –
12 | COc1cc(OC)c(F)c(N2Cc3cnc(-c4cn(C)nc4C)cc3N(c3ccc4ncsc4c3)C2=O)c1F [Example 41, 1-(1,3-benzothiazol-6-yl)-3-(2,6-difluoro-3,5-dimethoxyphenyl)-7-(1,3-dimethyl-1H-pyrazol-4-yl)-3,4-dihydropyrido[4,3-d]pyrimidin-2(1H)-one] | 30 to 200 nM | 30 to 200 nM | >1 | 10 to 30 nM | 10 to 30 nM | >5 | – | –
13 | COc1cc(OC)c(F)c(N2Cc3cnc(-c4cn(C)nc4C)cc3N(C3CCN(C(C)=O)CC3)C2=O)c1F [Example 43, 1-(1-acetylpiperidin-4-yl)-3-(2,6-difluoro-3,5-dimethoxyphenyl)-7-(1,3-dimethyl-1H-pyrazol-4-yl)-3,4-dihydropyrido[4,3-d]pyrimidin-2(1H)-one] | – | 30 to 200 nM | >10 | – | 30 to 200 nM | >5 | > 200 nM | 10 to 30 nM
14 | COc1cc(OC)c(F)c(N2Cc3cnc(-c4cn(C)nc4C)cc3N(c3ccc(C#N)cc3)C2=O)c1F [Example 44, 4-(3-(2,6-difluoro-3,5-dimethoxyphenyl)-7-(1,3-dimethyl-1H-pyrazol-4-yl)-2-oxo-3,4-dihydropyrido[4,3-d]pyrimidin-1(2H)-yl)benzonitrile] | 30 to 200 nM | 30 to 200 nM | >10 | < 10 nM | 10 to 30 nM | >10 | – | –
15 | COc1cc(OC)c(F)c(N2Cc3cnc(-c4cn(C)nc4C)cc3N(c3ccncn3)C2=O)c1F [Example 45, 3-(2,6-difluoro-3,5-dimethoxyphenyl)-7-(1,3-dimethyl-1H-pyrazol-4-yl)-1-pyrimidin-4-yl-3,4-dihydropyrido[4,3-d]pyrimidin-2(1H)-one] | 30 to 200 nM | 30 to 200 nM | >10 | < 10 nM | 10 to 30 nM | >10 | – | –
16 | CCN1C(=O)N(c2c(F)c(OC)cc(OC)c2F)Cc2cnc(-c3cn(CCN4CCOCC4)nc3C)cc21 [Example 49, 3-(2,6-difluoro-3,5-dimethoxyphenyl)-1-ethyl-7-(3-methyl-1-(2-morpholinoethyl)-1H-pyrazol-4-yl)-3,4-dihydropyrido[4,3-d]pyrimidin-2(1H)-one] | 30 to 200 nM | 30 to 200 nM | >5 | < 10 nM | < 10 nM | >1 | – | –
17 | CCN1C(=O)N(c2c(F)c(OC)cc(OC)c2F)Cc2cnc(-c3cn(CC(=O)N4CCOCC4)nc3C)cc21 [Example 51, 3-(2,6-difluoro-3,5-dimethoxyphenyl)-1-ethyl-7-(3-methyl-1-(2-morpholino-2-oxoethyl)-1H-pyrazol-4-yl)-3,4-dihydropyrido[4,3-d]pyrimidin-2(1H)-one] | – | > 200 nM | >1 | 30 to 200 nM | 30 to 200 nM | >1 | > 200 nM | –
18 | CCn1cnc(-c2cc3c(cn2)CN(c2c(F)c(OC)cc(OC)c2F)C(=O)C32CC2)c1 [Example 53, 2′-(2,6-difluoro-3,5-dimethoxyphenyl)-6′-(1-ethyl-1H-imidazol-4-yl)-1′H-spiro[cyclopropane-1,4′-[2,7]naphthyridin]-3′(2′H)-one] | 10 to 30 nM | 10 to 30 nM | >5 | < 10 nM | < 10 nM | >5 | – | –
19 | COc1cc(OC)c(F)c(N2Cc3cnc(-c4cn(C5CCS(=O)(=O)C5)nc4C)cc3C3(CC3)C2=O)c1F (stereo not drawn) [Example 54, 2′-(2,6-difluoro-3,5-dimethoxyphenyl)-6′-[1-(1,1-dioxidotetrahydro-3-thienyl)-3-methyl-1H-pyrazol-4-yl]-1′,2′-dihydro-3′H-spiro[cyclopropane-1,4′-[2,7]naphthyridin]-3′-one] | 30 to 200 nM | 10 to 30 nM | >5 | < 10 nM | < 10 nM | >1 | – | –
